Test results from patent US20240415819A1, “MACROCYCLIC COMPOUNDS AS PROTEASOME SUBUNIT BETA TYPE-5 INHIBITORS” (Lead Discovery Center GmbH, priority 2021, published 2024).
Read-outs that look alike come from different tables or passages of the source.

Key:
Karpas cells = test: Glo assay of Karpas cells (Table 3; ProteasomeGlo plating scheme); format: cell-based; conditions: read-out: Pglo Karpas
Description: Inhibition is indicated as IC50 [nM] (“-”=not measured). […] • Chymotrypsin-Like Cell-Based Proteasome-GloTM Assay (Promega; […]) • Cell culture 384-well plates (Greiner BioOne; 781080) • Dispensing cassette, MultiDrop Standard tube dispensing cassette (Thermo Scientific; 24072670) • DPBS (Pan BioTech; P04-36500) • Cell culture 384-well plates (Greiner BioOne; 781080) • CPD source plate: diamond-shape plate (Labcyte; LP-0200) • Intermediate plate (Labcyte; P-05525) [table] • a. Remove the plates with cells from the incubator. • b. Take all the plates including the compound plate, intermediate plate and Staurosporine plate to the ECHO. • c. Click on “Open” in the ECHO software and select the protocol “QLI5_25ul_30 uM-Grenier”. • d. Follow the on-screen prompts and instructions once you click “Start” to insert the compound plate, intermediate plate and destination plates. • e. Change the final number of destination plates on the program. • f. Follow the on-screen prompts and instructions once you click “Start” to load the Staurosporine and destination plates. • g. Once all the compounds, DMSO and Staurosporine have been transferred, place the destination plates in a wet tissue box. • h. Place the destination plates back into the incubator and incubate at 37° C., 5% CO2 for 105 minutes. • i. Re-seal all the compound+Stauro diamond and intermediate plates and store in the dark. Chymotrypsin like ProteasomeGlo Assay • 1. Thaw the components of the ProteasomeGlo assay at room temperature including the ProteasomeGlo Buffer, the lyophilized Luciferin Detection Reagent and the Suc-LLVY-Glo Substrate. • 2. Reconstitute the Luciferin Detection Reagent in the amber coloured bottle by adding 50 ml of the ProteasomeGlo Buffer. • 3. Vortex the Suc-LLVY-Glo Substrate briefly to reconstitute the Substrate well. • 4. Spin down the Substrate and add 250 μl of the Substrate to the reconstituted Luciferin Detection Reagent from step 2. • 5. Briefly vortex the amber bottle with the mix to prepare a homogenous solution. • 6. Place the mix prepared in step 5 to sit at room temperature for 60 minutes. • 7. After 60 minutes, pipette 25 μl of the mix from step 5 into all wells with the cells. • 8. Shake the plates for 2-5 minutes to ensure the complete mixing of the ProteasomeGlo reagent with the cells. • 9. Leave the plates in the dark for 10-15 minutes. • 10. Measure the luminescence read-out using the Viktor and the protocol “Luminescence_384Well_0.2 sec”. (Note: The Protoeasome-GloTM Reagent (combined Proteasome-GloTM Substrate, Proteasome-GloTM Buffer and Luciferin Detection Reagent) can be stored at 4° C. or -20° C. for 1 month with minimal loss of activity.)

[1] = tested on: B-cells isolated from PBMC's; test: Chymotrypsin-like ProteasomeGlo assay in B-cells isolated from PBMCs; format: cell-based, human; conditions: Homo sapiens
Description: PBMC's will be isolated from human blood followed by B-cell isolation from the PBMC's using the Miltenyi Isolation Kit. • 2. This experiment will use the Chymotrypsin-like ProteasomeGlo read-out to generate IC50's following compound treatment. • 3. Dilute all compounds 1:100 for the assay. • 4. […] Repeat the DMSO transfer with lane 12. • 5. Lane 12 should not be seeded with any cells. Only medium! • 6. For all steps, make sure the samples and reagents remain cool! • 7. While dealing with the buffy coats, be careful to not let any exposed skin to be in direct contact with the blood. […] PBMC isolation followed by B-cell isolation using the Miltenyi Kit • Day 2: B-cell plating, ECHO transfer and ProteasomeGlo assay For the initial steps and to make processing the buffy coats easier, separately process the buffy coats. • a. Cut the tube attached to the buffy coats carefully using a clean, sterile and fresh scalpel. • b. Transfer the blood into 2 individual 50 ml falcons. • c. Add an equal volume of DPBS to the blood in the falcons. • d. Add 20 ml of lymphocyte separating medium to two 50 ml falcons. • e. Carefully pour 15-20 ml of the blood+DPBS mix from step c. onto the lymphocyte separating medium from step d. • f. Centrifuge the falcons with the lymphocyte separating medium+blood mix at 800×g for 15 minutes using a swing-out rotor. • g. Following centrifugation, carefully remove the falcons from the centrifuge. • h. The following layers will be observed: • i. Aspirate the plasma layer off carefully without disturbing the different layers. • j. Remove the cell pellet using a pipette into two fresh 50 ml falcons. • k. Fill the falcons with the cells up to 50 ml with DPBS. • l. Centrifuge the falcons at 250×g for 10 minutes using a swing-out rotor (Brake-off). • m. Aspirate the complete DPBS off the cells without disturbing the cell pellet at the bottom of the falcon. • n. Re-suspend the cell pellet in 10 ml of 1×RBC lysis buffer. • o. Incubate the falcons at room temperature in the dark for 10 minutes. • p. After RBC lysis, centrifuge the tubes at 250×g for 10 minutes using a swing-out rotor (brake-off). • (*Note: If the cell pellet is still red or light red, repeat steps n. to p.!) • q. Re-suspend the cell pellet in DPBS up to 50 ml in the falcon. • r. Centrifuge the falcons at 250×g for 10 minutes using a swing-out rotor (Brake-off). • s. Aspirate the DPBS off the cells without disturbing the cell pellet at the bottom of the falcon. • t. Repeat the wash step as described in steps q. to s. 2× times more (total number of washes is 3×). • u. Aspirate the DPBS completely off the cell pellet after the last wash without disturbing the cell pellet. • v. Re-suspend the cell pellet in 20 ml of PBMC cell medium. • w. […] Re-suspend the pellet in volume of the B-cell isolation buffer calculated as follows: • k. Mix well using a 1 ml pipette and incubate the mix on ice for 20 mins. • l. In the meantime, equilibrate one LS Column as follows: • 1. Insert one LS Column into one slot of the separator as depicted in the pictures above. • 2. Place a 50 ml falcon at the bottom of the LS column to collect the wash flow-through. • 3. Add 3 ml of the B-cell isolation buffer into the column. • 4. Allow the buffer to flow-through making sure that the entire volume passes the column and that the column reservoir is empty before the addition of the cells. • 5. Remove the falcon with the flow-through and discard. • m. Place a fresh 50 ml falcon under the LS Column to collect the untouched B-cells isolated from the PBMCs. • n. Apply the entire volume of the cell+antibody+microbeads mix to the LS Column. • o. Collect the flow-through from each application of the mix into the same 50 ml falcon under the LS Column. • p. Once the complete volume of the cell+antibody+microbead mix has been passed through, proceed to washing of the column. • q. Add 3 ml of the B-cell isolation buffer to the LS Column and allow the buffer to flow-through. […]

[2] = B-cells isolated from PBMC's, read-out: Pglo B-Cell

| IC50 (Karpas cells) [nM] | Structure (SMILES) | IC50 [1, 2] [nM] | IC50 ([1]; read-out: Pglo B-Cell [nM]) [nM] |
| --- | --- | --- | --- |
| < 100 | COc1ccccc1CC(=O)N[C@H]1CC(=O)N2CCCC(CCOc3ccc(C)c(c3)CNC(=O)[C@H](CCc3ccccc3)NC1=O)C2 (stereo partly drawn) [Compound 84, 2-(2-methoxyphenyl)-N-((9S,12S)-5^4-methyl-8,11,14-trioxo-9-phenethyl-4-oxa-7,10-diaza-1(3,1)-piperidina-5(1,3)-benzenacyclotetradecaphane-12-yl)acetamide] | – | – |
| < 100 | COc1cccc(CC(=O)N[C@H]2CC(=O)N3CCCC(CCOc4ccc(C)c(c4)CNC(=O)[C@H](CCc4ccccc4)NC2=O)C3)c1 (stereo partly drawn) [Compound 85, 2-(3-methoxyphenyl)-N-((9S,12S)-5^4-methyl-8,11,14-trioxo-9-phenethyl-4-oxa-7,10-diaza-1(3,1)-piperidina-5(1,3)-benzenacyclotetradecaphane-12-yl)acetamide] | – | – |
| < 100 | CO[C@@H](C(=O)N[C@H]1CC(=O)N2CCCC(CCOc3ccc(C)c(c3)CNC(=O)[C@H](CCc3ccccc3)NC1=O)C2)c1ccccc1 (stereo partly drawn) [Compound 86, (2R)-2-methoxy-N-((9S,12S)-5^4-methyl-8,11,14-trioxo-9-phenethyl-4-oxa-7,10-diaza-1(3,1)-piperidina-5(1,3)-benzenacyclotetradecaphane-12-yl)-2-phenylacetamide] | – | – |
| < 100 | Cc1ccc2cc1CNC(=O)[C@H](CCc1ccccc1)NC(=O)[C@@H](NC(=O)[C@H](C)c1ccccc1)CC(=O)N1CCCC(CCO2)C1 (stereo partly drawn) [Compound 80, (2R)-N-((9S,12S)-5^4-methyl-8,11,14-trioxo-9-phenethyl-4-oxa-7,10-diaza-1(3,1)-piperidina-5(1,3)-benzenacyclotetradecaphane-12-yl)-2-phenylpropanamide] | < 100 | – |
| < 100 | Cc1ccc2cc1CNC(=O)[C@H](CCc1ccccc1)NC(=O)[C@@H](NC(=O)C1CCCc3ccccc31)CC(=O)N1CCCC(CCO2)C1 (stereo partly drawn) [Compound 82, N-((9S,12S)-5^4-methyl-8,11,14-trioxo-9-phenethyl-4-oxa-7,10-diaza-1(3,1)-piperidina-5(1,3)-benzenacyclotetradecaphane-12-yl)-1,2,3,4-tetrahydronaphthalene-1-carboxamide] | < 100 | – |

Continued, compound first:

| Structure (SMILES) | IC50 (Karpas cells) [nM] | IC50 [1, 2] [nM] | IC50 ([1]; read-out: Pglo B-Cell [nM]) [nM] |
| --- | --- | --- | --- |
| Cc1ccc2cc1CNC(=O)[C@H](CCc1ccccc1)NC(=O)[C@@H](NC(=O)c1ccccc1)CC(=O)N1CCCC(CCO2)C1 (stereo partly drawn) [Compound 26, N-((9S,12S)-5^4-methyl-8,11,14-trioxo-9-phenethyl-4-oxa-7,10-diaza-1(3,1)-piperidina-5(1,3)-benzenacyclotetradecaphane-12-yl)benzamide] | – | < 100 | – |
| Cc1ccc2cc1CNC(=O)[C@H](CCc1ccccc1)NC(=O)[C@@H](NC(=O)c1cc3cc(C(F)(F)F)ccc3n1C)CC(=O)N1CCCC(CCO2)C1 (stereo partly drawn) [Compound 87, 1-methyl-N-((9S,12S)-5^4-methyl-8,11,14-trioxo-9-phenethyl-4-oxa-7,10-diaza-1(3,1)-piperidina-5(1,3)-benzenacyclotetradecaphane-12-yl)-5-(trifluoromethyl)-1H-indole-2-carboxamide] | < 100 | – | – |
| Cc1ccc2cc1CNC(=O)C(CCc1cccnc1)NC(=O)CCC(=O)N1CCCC(CCO2)C1 (stereo not drawn) [Compound 51, 5^4-methyl-9-(2-(pyridin-3-yl)ethyl)-4-oxa-7,10-diaza-1(3,1)-piperidina-5(1,3)-benzenacyclotetradecaphane-8,11,14-trione] | – | < 100 | – |
| Cc1ccc2cc1CNC(=O)[C@H](Cc1ccccc1)NC(=O)CCC(=O)N1CCCC(CCO2)C1 (stereo partly drawn) [Compound 79, (9S)-9-benzyl-5^4-methyl-4-oxa-7,10-diaza-1(3,1)-piperidina-5(1,3)-benzenacyclotetradecaphane-8,11,14-trione] | 500 to 1000 | 500 to 1000 | – |
| Cc1ccc2cc1CNC(=O)[C@H](CCc1ccccc1)NC(=O)[C@@H](NC(=O)c1ccccn1)CC(=O)N1CCCC(CCO2)C1 (stereo partly drawn) [Compound 40, N-((9S,12S)-5^4-methyl-8,11,14-trioxo-9-phenethyl-4-oxa-7,10-diaza-1(3,1)-piperidina-5(1,3)-benzenacyclotetradecaphane-12-yl)picolinamide] | – | < 100 | – |
| Cc1ccc2cc1CNC(=O)[C@H](Cc1c[nH]c3ccccc13)NC(=O)CCC(=O)N1CCCC(CCO2)C1 (stereo partly drawn) [Compound 77, (9S)-9-((1H-indol-3-yl)methyl)-5^4-methyl-4-oxa-7,10-diaza-1(3,1)-piperidina-5(1,3)-benzenacyclotetradecaphane-8,11,14-trione] | 100 to 500 | 100 to 500 | – |
| Cc1ccc2cc1CNC(=O)[C@H](CCc1ccccc1)NC(=O)[C@@H](NC(=O)CCc1cccc(F)c1)CC(=O)N1CCCC(CCO2)C1 (stereo partly drawn) [Compound 25, 3-(3-fluorophenyl)-N-((9S,12S)-5^4-methyl-8,11,14-trioxo-9-phenethyl-4-oxa-7,10-diaza-1(3,1)-piperidina-5(1,3)-benzenacyclotetradecaphane-12-yl)propanamide] | – | < 100 | – |
| Cc1ccc2cc1CNC(=O)[C@H](CCc1ccccc1)NC(=O)[C@@H](NC(=O)CN1CCCC1)CC(=O)N1CCCC(CCO2)C1 (stereo partly drawn) [Compound 89, N-((9S,12S)-5^4-methyl-8,11,14-trioxo-9-phenethyl-4-oxa-7,10-diaza-1(3,1)-piperidina-5(1,3)-benzenacyclotetradecaphane-12-yl)-2-(pyrrolidin-1-yl)acetamide] | < 100 | – | – |
| CCOC(=O)N[C@H]1CC(=O)N2CCCC(CCOc3ccc(C)c(c3)CNC(=O)[C@H](CCc3ccccc3)NC1=O)C2 (stereo partly drawn) [Compound 39, ethyl ((9S,12S)-5^4-methyl-8,11,14-trioxo-9-phenethyl-4-oxa-7,10-diaza-1(3,1)-piperidina-5(1,3)-benzenacyclotetradecaphane-12-yl)carbamate] | – | – | < 100 |
